Marks after values point to notes of the source that are not given here.
Columns and labels:
acute hepatitis = conditions: literature statement; cited from earlier work
[1] = tested on: dimethylnitrosamine-induced rat hepatitis models; assay: Dimethylnitrosamine-induced rat hepatitis model (hepatic injury and fibrogenesis); format: in vivo; conditions: for Hepatic Fibrogenesis Score: n=15, histology (azan stain), grade 0-4
Protocol: Dimethylnitrosamine was frequently administered to rats for 3 weeks to thereby make the rats have irreversible hepatic fibrogenesis. The rats are the test models in this experiment. As the index of hepatic injury and fibrogenesis, the hepatic hydroxyproline was measured in every rat and the liver tissue of each rat was pathologically analyzed. Based on the data, the tissue fibrogenesis-inhibiting effect of the prostaglandin-I2 agonist was evaluated.
10 mg/kg of dimethylnitrosamine was intra-abdominally administered to rats everyday in continuous 3 days a week, over a period of three weeks. 5 days after the final administration of dimethylnitrosamine, the liver was taken out of each rat and its weight was measured. Then, distal potion of the left lobe of the liver was cut out. A part of it was used for histologic analysis^*1) for hepatic fibrogenesis; and another part thereof was used for determination of hepatic hydroxyproline content^*2).
The test compound was orally administered to the rats from the initial dimethylnitrosamine administration to one day before the blood collection from the rats. On the day for dimethylnitrosamine administration, the test compound was administered 12 hours after the dimethylnitrosamine administration; and on the other day, it was administered once a day. The effect of the test compound for curing hepatic injury and fibrogenesis was investigated. The test compound was administered to three groups −1 mg/kg/day administration group (n =15), 3.2 mg/kg/day administration group (n=15), and 10 mg/kg/day administration group (n=15). To the comparative control group, 0 mg/kg administration group (n=15), a solvent was administered in place of the test compound. To confirm the presentation of hepatic fibrogenesis through
dimethylnitrosamine administration, a solvent in place of dimethylnitrosamine was administered to a no-treatment group (n=5).
A distal potion of the left lobe of the liver was fixed in 10% neutral buffer formalin liquid, then stained with azan to prepare an anatomicopathological specimen, on which the degree of fibrogenesis was classified into 5 grades according to the fibrogenesis criteria mentioned below.
Grade 0: No fibrogenesis was found.
Grade 1: Light fibrogenesis was found only locally in and around the portal vein and the central vein.
Grade 2: The fibrogenesis in and around the portal vein and the central vein extended to the lobe.
Grade 4: High-level fibrogenesis was found along with pseudo lobe formation.
A part of the left lobe of the liver that had been frozen at −80° C. was thawed, and 1 ml/500 mg-liver weight of phosphate balanced salt buffer (PBS(−), Dulbecco PBS(−)) was added to it. Then, this was homogenized in Polytron (power control 7, type; PT 10 20 350D, by KINEMATICA) for 1 minute. 4 ml of the thus-homogenized liquid was transferred into a screw cap-equipped centrifuge (by PYREX), and 0.4 ml of 9M HCl was added to it and incubated at120° C. for 8 hours (in DRYING STERILIZER SG-62, by YAMATO). Next, this was further incubated at 4° C. overnight, then neutralized with 6 M KOH and 9M HCl, and then filtered (pore size 0.45 μm, MILLIPORE). 1 ml of chloramine-T^(**) was added to 100 μl of the filtrate or a standard liquid^(*), and left at room temperature for 20 minutes. 1 ml of Ehrich solution^(***) was added to it, and incubated at 65° C. for 40minutes. The reaction was stopped in ice-water, and then the absorbance (OD560) of the reaction liquid was measured with an spectrophotometer UV2100PC (UV-VIS SCANNING SPECTRO PHOTOMETER, by SHIMADZU).

[2] = tested on: bleomycin-induced mouse fibrotic lung models; assay: Bleomycin-induced lung fibrosis model in mice; format: in vivo
Protocol: Bleomycin was frequently administered to mice for 10 days to thereby make the mice fibrotic lung. The mice are the test models in this experiment. As the index of lung fibrogenesis, the lung hydroxyproline was measured in every mouse, from which the effect of the prostaglandin-I2 agonist for inhibiting lung fibrogenesis was investigated.
1. 10 mg/kg of bleomycin that had been dissolved in saline to have a concentration of 1 mg/ml was intraperitoneally administered to 8-weeks-old male C57BL/6N mice, once a day, everyday for continuous 10 days. Saline alone was intraperitoneally administered to the negative control group.
2. To the animals of the positive control group and the test compound-administered group, 10 ml/kg of pure water or an aqueous solution of the test compound (32 mg/kg) was orally administered everyday during the test period from the start of the bleomycin administration.
3. 4 weeks after the start of the bleomycin administration, the animals were killed in a mode of euthanasia, the lung was taken out, its wet weight was measured, and the lung was then freesed at −30° C.
4. […]
5. The hydrolyzed sample was neutralized with 6 mols/liter of potassium hydroxide, and the hydroxyproline content of the sample was measured, from which the lung hydroxyproline content was derived. […]

[3] = test compound-administered groups (1, 3.2, 10 mg/kg/day oral) vs dimethylnitrosamine control, figure only

CC#CCC(C)[C@H](O)/C=C/[C@@H]1[C@H]2c3cccc(CCCC(=O)O)c3O[C@H]2C[C@H]1O (mixture of isomers) [beraprost]
hepatic coagulation necrosis in acute hepatitis (acute hepatitis): inhibits hepatic coagulation necrosis

O=C(O)COc1cccc2c1CC[C@](O)(COC(=O)N(c1ccccc1)c1ccccc1)C2 [Test compound, [[(2R)-5-(carboxymethoxy)-2-hydroxy-1,2,3,4-tetrahydronaphth-2-yl]methyl]N,N-diphenylcarbamate]
Hepatic Fibrogenesis Score ([1]; 1 mg/kg/day oral, control (0 mg/kg) 2.1 ± 0.2): 1.7 ± 0.2
Hepatic Fibrogenesis Score ([1]; 3.2 mg/kg/day oral, p < 0.05 vs. 0 mg/kg (2.1 ± 0.2)): 1.3 ± 0.2*
Hepatic Fibrogenesis Score ([1]; 10 mg/kg/day oral, p < 0.05 vs. 0 mg/kg (2.1 ± 0.2)): 1.3 ± 0.2*
hepatic fibrogenesis (histology), in words ([1]; test compound-administered groups (1, 3.2, 10 mg/kg/day oral) vs dimethylnitrosamine control): inhibited
hepatic hydroxyproline content (hepatic collagen content) [1, 3]: decreased
liver weight reduction [1, 3]: suppressed
Hydroxyproline Content (lung) ([2]; 32 mg/kg oral daily, 4 weeks after start of bleomycin, n=15, positive control 398.19 ± 15.483, negative control 200.03 ± 6.9707, p < 0.01 vs positive control): 308.37 ± 19.403 ug/lung
increase in the lung hydroxyproline content caused by bleomycin administration ([2]; oral administration of 32 mg/kg): significantly inhibited

From patent US20040116530A1, “Tissue fibrosis inhibitors” (priority 2001, published 2004)
